We go through 2 substances from paper PMC6698794, “Catalytic Knockdown of miR-21 by Artificial Ribonuclease: Biological Performance in Tumor Model” (Frontiers in Pharmacology, 2019).

One data set relates to RLS40 lymphosarcoma. The data set can be described thus: Hepatic index of mice implanted with treated RLS40 cells. It is filed as in vivo. As to conditions: cells treated with 1 µM; (liver weight/mouse weight) × 100%; 5.0% for healthy CBA mice; Mean ± SE. Here is the method:
(§1) RLS40 ascites were taken from CBA mice intraperitoneally injected with tumor cells (2 × 10^6 in 0.2 ml buffered saline) into their abdominal cavities. RLS40 cells, isolated from ascites fluid by filtration through LSM were divided into seven portions: 1) untreated cells; 2) the cells incubated with Lipofectamine; the cells transfected with 1 µM of 3) h-ODN, 4) 2′-OMe, 5) Inh, 6) miR-21-miRNase, or 7) luc-POC each. After 4 h of transfection, cell suspensions (0.1 ml, 2 × 10^6 cells) were intramuscularly inoculated into the right lower limb of CBA mice for solid tumor development. As soon as tumors began to be palpable, the tumor volumes were measured every 2–3 days using calipers. Tumor volumes were calculated as V = (π/6 × length × width × height). Hepatic index was estimated as (liver weight/mouse weight) × 100% and as 5.0% for healthy CBA mice. Tumor doubling time (DT) was estimated as DT = (t − t0) × ln 2/(ln V − ln V0), where (t − t0) indicates the length of time between two measurements of tumor size and V0 and V denote the tumor volume at two points of the measurement ([Ozono et al., 2004]).
Supplementary Table 2. Hepatic indexes of mice implanted with RLS40 treated with antisense
oligonucleotides, control luc-POC and miR-21-miRNase
Type of treatment Hepatic index, %* p-value (vs control)
* – Mean ± SE; s.i. – statistically insignificant
Hepatic index was estimated as (liver weight/mouse weight) × 100% and as 5.0% for healthy CBA
The MDR status of RLS40 may add to the burden on the liver, when this type of tumor
metastasizes into the liver (Sen’kova et al., 2012). Ex vivo treatment of RLS40 cells by
oligonucleotides and miRNase avoids the toxic effect of antisense oligonucleotides, their conjugates
and transfection reagents directly on the tumor-bearing animal. This may allow consideration of
whether the decrease of migration activity of tumor cells translated into reduced metastatic burden of
RLS40 on the liver. Treatment of the cells seeding the tumor may not reduce migration and […]

For another data set, the system named is PDCD4. The data set can be described thus: PDCD4 protein level in transfected RLS40 cells by Western blot. It is filed as cell-based, mouse. The note with it: 1 µM, 72 h after transfection, GAPDH internal control. As for the experimental part:
as §1
(§2) Supplementary Figure 3. Expression level of miR-21 and PTEN and PDCD4 protein level in RLS40 cells after transfection with 1 µM of luc-POC or miR-21-miRNase using LipofectamineTM 2000. (A) Expression level of miR-21 24 h after transfection. The expression of miRNAs was normalized to U6. […]
(A western blot detects proteins with antibodies after separation by electrophoresis.)

The next data set deals with PTEN. Nature of the data set: PTEN protein level in transfected RLS40 cells by Western blot. It is filed as cell-based, mouse. As to conditions: 1 µM, 72 h after transfection, GAPDH internal control. As for the experimental part:
as §1, §2

The test system of another data set is lymphosarcoma cells. As to conditions: ref Patutina et al., 2017a; cited from earlier work. The text has this: Short functional non-coding microRNAs are implicated in many types of cancer ([Frixa et al., 2015]; [O’Bryan et al., 2017]; [Zhou et al., 2017]). Amongst many miRNAs identified as important inducers of oncogenesis, miR-21 represents an extreme oncomiR, which is strongly involved in tumor onset and progression for many types of malignancies ([Huang et al., 2013]; [Lianidou et al., 2016]; [Yu et al., 2018]). Since miR-21 is abnormally overexpressed in major types of tumors, this oncomiR is the most considered target for anti-miRNA inhibitory studies. However, depending on the origin of tissue an ...

The test system of a further data set is B16 cells. The data set can be described thus: In vitro invasiveness assay (xCELLigence, Matrigel-coated CIM-Plates). The data set is classed as cell-based, mouse. As to conditions: 1 µM with Lipofectamine. As for the experimental part: B16 cells were pre-seeded (2 × 10^5 per well of 24-well plates) in DMEM/10% FBS a day before transfection. Medium was replaced with serum-free DMEM, prior to incubation for 4 h with h-ODN, 2′-OMe, Inh (hsa-miR-21 5 p inhibitor, Ambion, USA), miR-21-miRNase, or luc-POC, each (0.1 or 1 µM) pre-complexed with Lipofectamine (Thermo Fisher Scientific, USA) in Opti-MEM medium (Thermo Fisher Scientific, USA) according to manufacturer’s instructions, then cells were cultivated in fresh culture standard medium for 24–72 h.
Real-time cell analysis (xCELLigence, ACEABiosciences, USA) used CIM-Plates held at 37°C under an atmosphere of 5% CO2. Top chamber wells were coated with Matrigel (20 µl per well, diluted 1:40 with cold serum-free DMEM) and allowed to polymerize (4 h at 37°C under 5% CO2) prior to cell seeding. Bottom chamber wells were filled with DMEM/10% FBS (160 µl each), prior to assembly of the chambers, when serum-free DMEM was added to the top wells (30 µl each) and equilibrated (1 h at 37°C under 5% CO2). At 4 h after transfection, B16 cells (4 × 10^4) were seeded into each top chamber well in serum-free DMEM and pre-incubated for 30 min at room temperature before monitoring (xCELLigence set to collect impedance data, reported as cell index at least once every 30 min).
Figure 2 Biological effect of the miR-21-specific miRNase. (A) Apoptotic profile of B16 melanoma cells after transfection with miR-21-miRNase and control luc-POC. Cytofluorimetric analysis of cells after staining with Annexin V-FITC/PI 48 h after transfection with miRNase or luc-POC (1 µM) in complex with Lipofectamine2000. Q1—population of living cells; Q2—Annexin V-FITC+/PI-, early apoptosis; Q3—Annexin V-FITC+/PI+, late apoptosis; Q4—Annexin V-FITC-/PI+, necrosis. (B) Average percentage of apoptotic (early and late apoptosis) and necrotic B16 cell population. Data represent mean ± s.e. of four independent experiments.(C, D) Invasion activity of B16 cells after incubation with Lipofectamine (LF) alone or treated with either hairpin antisense oligonucleotide (h-ODN), hairpin 2′-OMe oligonucleotide (2′-OMe), commercial miR-21 inhibitor (Inh), miR-21-miRNase, and control conjugate (luc-POC) in the concentration of 1 µM. Migration of cells was recorded in real time using the xCELLigence cell analysis system. Control—B16 cells without treatment. Data represent mean ± s.d. of four independent experiments.

As for “acetyl-[(LeuArg)2Gly]2-aminohexyl-AGTCTGATAAGCTACAAGTCAGCGAAAGCTGACTTG [miR-21-miRNase, peptide acetyl-[(LeuArg)2Gly]2 conjugated through aminohexyl linker to 5′-end of miR-21-targeted hairpin oligodeoxyribonucleotide]”, the Hepatic index with RLS40 lymphosarcoma is on record as 5.1±0.16%. The “Increase in PDCD4 protein level” value in the data set on PDCD4 stood at 2.4 fold. The “Increase in PTEN protein level” value in the data set on PTEN is 1.7 fold. Further, in the data set on lymphosarcoma cells, the “Inhibition of tumor cell proliferation” value was 50%. Besides, the “Inhibition of invasion of B16 cells relative to luc-POC” value in the data set on B16 cells (time point 40 h) is “about 70%”. The “Inhibition of invasion of B16 cells relative to control” value in the data set with B16 cells (time point 40 h, four independent experiments) is recorded as “about 70%”.

As for “h-ODN: miR-21-targeted hairpin deoxyribooligonucleotide AGTCTGATAAGCTACAAGTCAGCGAAAGCTGACTTG, unconjugated with the peptide (DNA, backbone and methylation of C not given here; hairpin at 3' end, unconjugated)”, in the data set on RLS40 lymphosarcoma, the Hepatic index stood at 5.23±0.17%. Moreover, the “Migration rate of transfected B16 cells (in words)” value in the data set with B16 cells (compared with Lipofectamine alone) is “almost the same rate as cells incubated with Lipofectamine”.
